Test results from patent US20110033393A1, “Hydrazone Compounds and Their Use” (priority 2009, published 2011).

Target: T1, human TRPM5 ion channel (Homo sapiens, UniProt Q9NZQ8)
T1 sequence (Q9NZQ8 1-1165): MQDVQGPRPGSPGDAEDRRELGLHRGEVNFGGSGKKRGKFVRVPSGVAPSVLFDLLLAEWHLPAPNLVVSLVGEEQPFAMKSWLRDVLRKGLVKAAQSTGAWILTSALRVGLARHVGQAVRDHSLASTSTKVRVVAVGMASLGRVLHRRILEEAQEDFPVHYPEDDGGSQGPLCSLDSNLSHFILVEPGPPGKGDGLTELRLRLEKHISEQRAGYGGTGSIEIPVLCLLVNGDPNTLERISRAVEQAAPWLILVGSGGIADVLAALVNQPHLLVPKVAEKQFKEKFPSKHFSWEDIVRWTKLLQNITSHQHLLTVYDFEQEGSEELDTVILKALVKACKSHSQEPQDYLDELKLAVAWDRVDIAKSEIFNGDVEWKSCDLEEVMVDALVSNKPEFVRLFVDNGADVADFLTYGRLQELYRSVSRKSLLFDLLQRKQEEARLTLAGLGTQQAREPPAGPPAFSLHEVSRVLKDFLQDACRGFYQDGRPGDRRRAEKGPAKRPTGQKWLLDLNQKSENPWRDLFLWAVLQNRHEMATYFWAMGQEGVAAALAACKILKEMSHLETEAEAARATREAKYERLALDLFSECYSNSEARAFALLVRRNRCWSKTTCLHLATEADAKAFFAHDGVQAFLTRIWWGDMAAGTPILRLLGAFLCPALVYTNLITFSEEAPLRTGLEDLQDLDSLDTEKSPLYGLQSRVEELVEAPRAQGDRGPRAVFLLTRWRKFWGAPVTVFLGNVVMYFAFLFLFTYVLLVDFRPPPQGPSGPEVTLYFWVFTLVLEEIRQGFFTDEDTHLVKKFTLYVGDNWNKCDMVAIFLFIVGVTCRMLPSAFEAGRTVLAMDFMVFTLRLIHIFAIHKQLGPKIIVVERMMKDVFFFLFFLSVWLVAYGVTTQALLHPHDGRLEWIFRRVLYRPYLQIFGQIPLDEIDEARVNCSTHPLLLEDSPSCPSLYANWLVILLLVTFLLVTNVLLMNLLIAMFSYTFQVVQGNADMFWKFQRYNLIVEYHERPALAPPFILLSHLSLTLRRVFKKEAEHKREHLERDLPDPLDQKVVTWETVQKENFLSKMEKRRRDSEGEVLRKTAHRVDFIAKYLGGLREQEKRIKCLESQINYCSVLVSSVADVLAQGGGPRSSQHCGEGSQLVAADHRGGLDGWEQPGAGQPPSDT
Test: FLIPR-based assay for membrane potential and calcium mobilization (TRPM5 inhibiting activity)
Type: cell-based
Conditions: live cells, 30° C., read-out: hTrpM5 IC50
Experimental: The activity of compounds of the present invention on human TRPM5 ion channel was measured using the FLIPR-based (fluorescent imaging plate reader) assay for membrane potential and calcium mobilization described in U.S. Patent Application Publication No. 2008/0249189 A1 in live cells, wherein the assay is performed at 30° C. Determinations of affinity and efficacy were derived from measurements of TRPM5 activity over a range of compound concentrations. The concentration range was achieved by 10 serial dilutions (either 2-fold or 3-fold decrements) from a maximum concentration of no greater that 100 μM. Curver fitting was performed on the resulting data to yield concentration-effect functions, from which the half-maximal inhibitory concentration (IC50) was derived for all the tested compounds. The IC50 values were considered to be accurate reflections of affinity between the compounds and TRPM5.
Representative compounds of the present invention have been tested in the FLIPR assay for TRPM5 inhibiting activity, which is described in detail above.

SMILES | IC50 [nM]
COc1ccc(/C=N/NC(=O)[C@@H]2C[C@H]2c2cccc(C(F)(F)F)c2)cc1OC (relative stereo) [Example 6, trans-N′-(3,4-Dimethoxybenzylidene)-2-(3-(trifluoromethyl)phenyl)cyclopropanecarbohydrazide] | 37
COc1cc(/C=N/NC(=O)[C@@H]2C[C@H]2c2ccccc2)cc2cccnc12 (relative stereo) [Example 22, trans-N′-((8-Methoxyquinolin-6-yl)methylene)-2-phenylcyclopropanecarbohydrazide] | 90
COc1ccc(/C=N/NC(=O)[C@@H]2C[C@H]2c2ccc3ccccc3n2)cc1OC (relative stereo) [Example 36, trans-N′-(3,4-Dimethoxybenzylidene)-2-(quinolin-2-yl)cyclopropanecarbohydrazide] | 930
COc1ccc(/C=N/NC(=O)[C@@H]2C[C@H]2c2cccc(C)n2)cc1OC (relative stereo) [Example 37, trans-N′-(3,4-Dimethoxybenzylidene)-2-(6-methylpyridin-2-yl)cyclopropanecarbohydrazide] | 3200
COc1ccc(C=NNC(=O)[C@@H]2C[C@H]2c2cnc3ccccc3c2)cc1OC (relative stereo) [Example 38, trans-N′-(3,4-Dimethoxybenzylidene)-2-(quinolin-3-yl)cyclopropanecarbohydrazide] | 610
COc1ccc([C@@H]2C[C@H]2C(=O)N/N=C/c2cc(C)c3ncccc3c2)cn1 (relative stereo) [Example 41, trans-2-(6-Methoxypyridin-3-yl)-N′-((8-methylquinolin-6-yl)methylene)cyclopropanecarbohydrazide] | 5000
Cc1cc(C=NNC(=O)C2CC2c2ccccc2)cc2cccnc12 (single isomer, unassigned) [11 (E1), trans-N′-((8-Methylquinolin-6-yl)methylene)-2-phenylcyclopropanecarbohydrazide, E1 enantiomer] | > 10000
COc1ccc(/C=N/NC(=O)C(C)Sc2cccc(Cl)c2)cc1OC (stereo not shown) [Example 1, 2-(3-Chlorophenylthio)-N′-(3,4-dimethoxybenzylidene)propanehydrazide] | 55
COc1ccc(/C=N/NC(=O)CCc2cn(C)c3ccccc23)cc1OC [Example 2, N′-(3,4-dimethoxybenzylidene)-3-(1-methyl-1H-indol-3-yl)propanehydrazide] | 51
Cc1cn(CCC(=O)N/N=C/c2cc(C)c3ncccc3c2)c2ccccc12 [Example 3, 3-(3-Methyl-1H-indol-1-yl)-N′-((8-methylquinolin-6-yl)methylene)propanehydrazide] | 30
COc1cc(/C=N/NC(=O)CCn2cc(C)c3ccccc32)ccc1OCCCO [Example 4, N′-(4-(3-Hydroxypropoxy)-3-methoxybenzylidene)-3-(3-methyl-1H-indol-1-yl)propanehydrazide] | 500
COc1ccc(/C=N/NC(=O)NCCc2ccc(Cl)cc2)cc1OC [Example 5, N-(4-Chlorophenethyl)-2-(3,4-dimethoxybenzylidene)hydrazinecarboxamide] | 51
COc1ccc(/C=N/NC(=O)CCn2cc(C)c3c(C)cccc32)cc1OC [Example 7, N′-(3,4-Dimethoxybenzylidene)-3-(3,4-dimethyl-1H-indol-1-yl)propanehydrazide] | 1.8
COc1cc(F)c(/C=N/NC(=O)CCn2cc(C)c3c(C)cccc32)cc1OC [Example 8, 3-(3,4-Dimethyl-1H-indol-1-yl)-N′-(2-fluoro-4,5-dimethoxybenzylidene)propanehydrazide] | 3
COc1ccc(/C=N/N(C)C(=O)C2CC2c2ccccc2)cc1OC (stereo not drawn) [Example 9, trans-N′-(3,4-Dimethoxybenzylidene)-N-methyl-2-phenylcyclopropanecarbohydrazide] | 5000
COc1cc(/C=N/NC(=O)CCn2cc(C)c3c(C)cccc32)ccc1OCc1ccccc1 [Example 12, N′-(4-(Benzyloxy)-3-methoxybenzylidene)-3-(3,4-dimethyl-1H-indol-1-yl)propanehydrazide] | 80
COc1cc(/C=N/NC(=O)CCn2cc(C)c3c(C)cccc32)ccc1OCc1ccccn1 [Example 13, 3-(3,4-Dimethyl-1H-indol-1-yl)-N′-(3-methoxy-4-(pyridin-2-ylmethoxy)benzylidene)propanehydrazide] | 66
COc1cc(/C=N/NC(=O)CCn2cc(C)c3c(C)cccc32)ccc1OCc1cccnc1 [Example 16, 3-(3,4-Dimethyl-1H-indol-1-yl)-N′-(3-methoxy-4-(pyridin-3-ylmethoxy)benzylidene)propanehydrazide] | 53
COc1ccc(/C=N/NC(=O)CCn2cnc3c(C)cccc32)cc1OC [Example 17, N′-(3,4-Dimethoxybenzylidene)-3-(4-methyl-1H-benzo[d]imidazol-1-yl)propanehydrazide] | 2400
COc1cc(/C=N/NC(=O)CCn2cc(C)c3c(C)cccc32)ccc1OCc1ccncc1 [Example 18, 3-(3,4-Dimethyl-1H-indol-1-yl)-N′-(3-methoxy-4-(pyridin-4-ylmethoxy)benzylidene)propanehydrazide] | 46

More lines, in order of falling IC50, values ahead:

IC50 [nM] | SMILES
~50000 | O=C(N/N=C/c1ccc2ncccc2n1)[C@@H]1C[C@H]1c1cccc(Cl)c1 (relative stereo) [Example 31, trans-N′-((1,5-Naphthyridin-2-yl)methylene)-2-(3-chlorophenyl)cyclopropanecarbohydrazide]
800 | Cc1cc(/C=N/NC(=O)[C@@H]2C[C@H]2c2cccc(Cl)c2)cc2cccnc12 (relative stereo) [Example 29, trans-2-(3-Chlorophenyl)-N′-((8-methylquinolin-6-yl)methylene)cyclopropanecarbohydrazide]
680 | COc1ccc(/C=N/NC(=O)CCn2cc(C)c3cccnc32)cc1OC [Example 14, N′-(3,4-Dimethoxybenzylidene)-3-(3-methyl-1H-pyrrolo[2,3-b]pyridin-1-yl)propanehydrazide]
650 | O=C(N/N=C/c1cc(Cl)c2ncccc2c1)[C@@H]1C[C@H]1c1cccc(Cl)c1 (relative stereo) [Example 28, trans-2-(3-Chlorophenyl)-N′-((8-chloroquinolin-6-yl)methylene)cyclopropanecarbohydrazide]
410 | COc1cccc([C@@H]2C[C@H]2C(=O)N/N=C/c2cc(C)c3ncccc3c2)n1 (relative stereo) [Example 42, trans-2-(6-Methoxypyridin-2-yl)-N′-((8-methylquinolin-6-yl)methylene)cyclopropanecarbohydrazide]
340 | O=C(N/N=C/c1cc(Cl)c2ncccc2c1)[C@@H]1C[C@H]1c1ccccc1 (relative stereo) [Example 25, trans-N′-((8-Chloroquinolin-6-yl)methylene)-2-phenylcyclopropanecarbohydrazide]
240 | Cc1cc(C=NNC(=O)C2CC2c2ccccc2)cc2cccnc12 (single isomer, unassigned) [11 (E2), trans-N′-((8-Methylquinolin-6-yl)methylene)-2-phenylcyclopropanecarbohydrazide, E2 enantiomer]
38 | COc1cc(/C=N/NC(=O)CCn2cc(C)c3c(C)cccc32)cc(Cl)c1OC [Example 15, N′-(3-Chloro-4,5-dimethoxybenzylidene)-3-(3,4-dimethyl-1H-indol-1-yl)propanehydrazide]
